Reference: patent US9182397B2, “Immunoassay for detecting antibiotics” (DSM IP ASSETS B.V., priority 2011, dated 2015)
Each block holds one molecule with its values, some of them ahead of it.

System: Penicillin binding protein purified from Bacillus stearothermophilus
Assay: Sensitivity of the test device for different antibiotics (Example 23)
Parameters: key: 0: no intensity; 1: low intensity; 2: medium intensity; 3: high intensity
Description: A nitrocellulose HF90 membrane (Millipore; length 25 mm) was used as a detection region. The membrane was glued to a polystyrene laminated card (thickness 0.254 mm) 8 mm from the proximal end of the card. Next, the detection zone and control zone were applied onto the nitrocellulose membrane. The detection zone was applied by dispensing 1 mg/ml of a 7ACA-spacer-BSA conjugate in 20 mM KPO4-buffer (pH 7.5) with a Biodot Dispense workstation XYZ 3050 with frontline at 0.2 μl/cm. The control zone was applied by dispensing 0.15 mg/ml of an anti-IgY antibody in 20 mM KPO4-buffer (pH 7.5) comprising 0.675 mg/ml BSA, 5% w/v saccharose and 20 mM NaCl with a Biodot Dispense workstation XYZ 3050 with frontline at 0.8 μl/cm. After drying of the zones, the nitrocellulose membrane was blocked by spraying a solution comprising 10 mM Tris buffer (pH 8) comprising 2% w/v BSA and 0.05% w/v Tween-20 using a Biodot Dispense workstation XYZ 3050 with airjet 3×. The solution was sprayed onto the membrane at a distance of 2 mm below the detection zone. Thereafter, the sample receiving region (VF2 membrane from Millipore; length 1 cm) was glued at the proximal end of the card overlapping 2 mm with the nitrocellulose membrane. The absorbing region (10038 membrane from Millipore; length 20 mm) was glued at the distal end of the card with an overlap of 2 mm on the nitrocellulose membrane. The obtained cards were dried at 37° C. in a dry atmosphere (0% relative humidity). The card was cut in strips of 5.2 mm width and kept at a dry atmosphere (0% relative humidity).
Streptavidin-coated gold particles were synthesized by reacting colloidal gold (diameter 40 nm; 1 OD/ml) with 10 μg/ml streptavidin. Next, the obtained solution was concentrated by tangential flow filtration, washed and stored in a Tris buffer (pH 8) including NaCN. Penicillin binding protein purified from Bacillus stearothermophilus was biotinylated (1:4) with D-biotinyl-epsilon-aminocaproic acid-N-hydroxysuccinimide ester. Next, the penicillin binding protein-gold conjugate was synthesized by reacting 1.5 μg biotinylated penicillin binding protein with 1 OD streptavidin-coated gold particles for 1 hour, followed by centrifugation at 10,000×g for 5 minutes and resuspension of the obtained pellet in 45 mM bicarbonate buffer comprising 0.1% w/v Triton X-100 (pH 9.6).
Thereafter, 140-200 mOD of the penicillin binding protein-gold conjugate and 5-20 mOD of the IgY-gold conjugate was solubilized in 100 μl buffer (80 mM Tris buffer comprising 0.01% w/v Triton-X-100, 0.4% w/v BSA, 5% v/v glycerin and 2% w/v saccharose (pH 8.5)) and 0.75 μl of the solution was dispensed per tube and dried for 12 hours at 40° C. The obtained tubes were sealed.
150 μl of spiked milk was added per tube containing the dried conjugates. The concentration of penicillin G in the added milk varied from 0 to 4 ng/g (tube 1: 0 ng/g; […]; tube 2: 2 ng/g; tube 3: 3 ng/g; and tube 4: 4 ng/g). The obtained liquid composition was incubated for 2 minutes at 64° C. in an incubator. A test device was put into the tube and incubated for 3 minutes at 64° C. in the incubator. The result was read by eye.
The test was done essentially as described in Example 3, with the proviso that different antibiotics at different concentrations were tested.

SMILES: CC1(C)S[C@@H]2[C@H](NC(=O)[C@H](N)c3ccc(O)cc3)C(=O)N2[C@H]1C(=O)O [Amoxicillin]
Intensity of detection zone (Amoxicillin 3.3 ng/g in milk): 2 | Intensity of detection zone (Amoxicillin 4.3 ng/g in milk): 1 | Intensity of detection zone (Amoxicillin 5.3 ng/g in milk): 1 | Intensity of detection zone (Amoxicillin 6.3 ng/g in milk): 0 | Intensity of detection zone (Amoxicillin 7.3 ng/g in milk): 0

SMILES: CC1(C)S[C@@H]2[C@H](NC(=O)[C@H](N)c3ccccc3)C(=O)N2[C@H]1C(=O)O [Ampicillin]
Intensity of detection zone (Ampicillin 5.3 ng/g in milk): 2 | Intensity of detection zone (Ampicillin 6.9 ng/g in milk): 1 | Intensity of detection zone (Ampicillin 8.5 ng/g in milk): 0 | Intensity of detection zone (Ampicillin 10.1 ng/g in milk): 0 | Intensity of detection zone (Ampicillin 11.7 ng/g in milk): 0

SMILES: CCN1CCN(C(=O)N[C@@H](C(=O)N[C@@H]2C(=O)N3C(C(=O)O)=C(CSc4nnnn4C)CS[C@H]23)c2ccc(O)cc2)C(=O)C1=O [Cefoperazone]
Intensity of detection zone (Cefoperazone 4.0 ng/g in milk): 2 | Intensity of detection zone (Cefoperazone 4.9 ng/g in milk): 2 | Intensity of detection zone (Cefoperazone 5.8 ng/g in milk): 1 | Intensity of detection zone (Cefoperazone 6.7 ng/g in milk): 1 | Intensity of detection zone (Cefoperazone 7.6 ng/g in milk): 0

SMILES: Cc1onc(-c2ccccc2Cl)c1C(=O)N[C@@H]1C(=O)N2[C@@H]1SC(C)(C)[C@@H]2C(=O)O [Cloxacillin]
Intensity of detection zone (Cloxacillin 32.5 ng/g in milk): 1 | Intensity of detection zone (Cloxacillin 43.2 ng/g in milk): 0 | Intensity of detection zone (Cloxacillin 53.9 ng/g in milk): 0 | Intensity of detection zone (Cloxacillin 64.6 ng/g in milk): 0 | Intensity of detection zone (Cloxacillin 75.3 ng/g in milk): 0

SMILES: Cc1onc(-c2c(Cl)cccc2Cl)c1C(=O)N[C@@H]1C(=O)N2[C@@H]1SC(C)(C)[C@@H]2C(=O)O [Dicloxacillin]
Intensity of detection zone (Dicloxacillin 15.0 ng/g in milk): 3 | Intensity of detection zone (Dicloxacillin 20.0 ng/g in milk): 2 | Intensity of detection zone (Dicloxacillin 25.0 ng/g in milk): 2 | Intensity of detection zone (Dicloxacillin 30.0 ng/g in milk): 1 | Intensity of detection zone (Dicloxacillin 35.0 ng/g in milk): 0

SMILES: CCOc1ccc2ccccc2c1C(=O)N[C@@H]1C(=O)N2[C@@H]1SC(C)(C)[C@@H]2C(=O)O [Nafcillin]
Intensity of detection zone (Nafcillin 40.0 ng/g in milk): 3 | Intensity of detection zone (Nafcillin 50.5 ng/g in milk): 2 | Intensity of detection zone (Nafcillin 61.0 ng/g in milk): 1 | Intensity of detection zone (Nafcillin 71.5 ng/g in milk): 0 | Intensity of detection zone (Nafcillin 82.0 ng/g in milk): 0

SMILES: Cc1onc(-c2ccccc2)c1C(=O)N[C@@H]1C(=O)N2[C@@H]1SC(C)(C)[C@@H]2C(=O)O [Oxacillin]
Intensity of detection zone (Oxacillin 27.0 ng/g in milk): 2 | Intensity of detection zone (Oxacillin 34.8 ng/g in milk): 2 | Intensity of detection zone (Oxacillin 42.6 ng/g in milk): 1 | Intensity of detection zone (Oxacillin 50.4 ng/g in milk): 0 | Intensity of detection zone (Oxacillin 58.2 ng/g in milk): 0

Other lines, results leading:

Intensity of detection zone (Cefalexin 34.0 ng/g in milk): 2 | Intensity of detection zone (Cefalexin 43.0 ng/g in milk): 1 | Intensity of detection zone (Cefalexin 52.0 ng/g in milk): 0 | Intensity of detection zone (Cefalexin 61.0 ng/g in milk): 0 | Intensity of detection zone (Cefalexin 70.0 ng/g in milk): 0
SMILES: CC1=C(C(=O)O)N2C(=O)[C@@H](NC(=O)[C@H](N)c3ccccc3)[C@H]2SC1 [Cefalexin]

Intensity of detection zone (Cefalonium 3.2 ng/g in milk): 2 | Intensity of detection zone (Cefalonium 4.0 ng/g in milk): 1 | Intensity of detection zone (Cefalonium 4.8 ng/g in milk): 0 | Intensity of detection zone (Cefalonium 5.6 ng/g in milk): 0 | Intensity of detection zone (Cefalonium 6.4 ng/g in milk): 0
SMILES: NC(=O)c1cc[n+](CC2=C(C(=O)[O-])N3C(=O)[C@@H](NC(=O)Cc4cccs4)[C@H]3SC2)cc1 [Cefalonium]

Intensity of detection zone (Cefazolin 10.0 ng/g in milk): 2 | Intensity of detection zone (Cefazolin 12.5 ng/g in milk): 1 | Intensity of detection zone (Cefazolin 15.0 ng/g in milk): 0 | Intensity of detection zone (Cefazolin 17.5 ng/g in milk): 0 | Intensity of detection zone (Cefazolin 20.0 ng/g in milk): 0
SMILES: Cc1nnc(SCC2=C(C(=O)O)N3C(=O)[C@@H](NC(=O)Cn4cnnn4)[C@H]3SC2)s1 [Cefazolin]

Intensity of detection zone (Cefquinome 12.5 ng/g in milk): 2 | Intensity of detection zone (Cefquinome 15.8 ng/g in milk): 1 | Intensity of detection zone (Cefquinome 19.1 ng/g in milk): 0 | Intensity of detection zone (Cefquinome 22.4 ng/g in milk): 0 | Intensity of detection zone (Cefquinome 25.7 ng/g in milk): 0
SMILES: CO/N=C(\C(=O)N[C@@H]1C(=O)N2C(C(=O)[O-])=C(C[n+]3cccc4c3CCCC4)CS[C@H]12)c1csc(N)n1 [Cefquinome]

Intensity of detection zone (Ceftiofur 4.0 ng/g in milk): 2 | Intensity of detection zone (Ceftiofur 5.1 ng/g in milk): 1 | Intensity of detection zone (Ceftiofur 6.2 ng/g in milk): 0 | Intensity of detection zone (Ceftiofur 7.3 ng/g in milk): 0 | Intensity of detection zone (Ceftiofur 8.4 ng/g in milk): 0
SMILES: CO/N=C(\C(=O)N[C@@H]1C(=O)N2C(C(=O)O)=C(CSC(=O)c3ccco3)CS[C@H]12)c1csc(N)n1 [Ceftiofur]
